{
  "source": "EPA's ToxRefDB 2",
  "key": {"[1]": {"system": "dog", "conditions": "Chronic toxicity, beagle, Oral, Gavage/Intubation, dose end: 363 day, group: systemic"}, "[2]": {"system": "rat", "conditions": "Prenatal developmental toxicity study, sprague dawley, Oral, Gavage/Intubation, dose end: 18 GD"}, "[3]": {"system": "mouse", "conditions": "Subchronic oral toxicity in rodents, Gavage/Intubation, dose end: 91 day, group: systemic, systemic / in life observation / body weight / body weight gain + systemic / organ weight / heart / absolute + systemic / organ weight / …"}, "[4]": {"system": "rat", "conditions": "Sub-acute repeat dose toxicity, sprague dawley, Oral, Gavage/Intubation, dose end: 28 day, group: systemic"}, "[5]": {"system": "mouse", "conditions": "Sub-acute repeat dose toxicity; Oral; Gavage/Intubation; dose end: 29 day; group: systemic; systemic / clinical chemistry / glucose / glucose + systemic / clinical chemistry / urea nitrogen / urea + systemic / hematology / leukocyte…"}, "[6]": {"system": "dog", "conditions": "Sub-acute repeat dose toxicity; beagle; Oral; Gavage/Intubation; dose end: 30 day; group: systemic; systemic / in life observation / body weight / body weight gain + systemic / organ weight / liver / absolute + systemic / organ weight / …"}, "[7]": {"system": "rat", "conditions": "Sub-acute repeat dose toxicity; sprague dawley; Oral; Feed; dose end: 15 day; group: systemic; systemic / in life observation / body weight / body weight + systemic / in life observation / food consumption / food consumption"}, "[8]": {"system": "rabbit", "conditions": "Sub-acute repeat dose toxicity; Oral; Gavage/Intubation; dose end: 5 day; group: systemic; systemic / in life observation / body weight / body weight + systemic / in life observation / clinical signs / [other] + systemic / in life …"}, "[9]": {"system": "rat", "conditions": "Chronic toxicity; sprague dawley; Oral; Gavage/Intubation; dose end: 181 day; group: systemic; systemic / in life observation / body weight / body weight gain + systemic / hematology / reticulocyte / reticulocyte + systemic / pathology…"}, "[10]": {"system": "primate", "conditions": "Sub-acute repeat dose toxicity; Oral; Gavage/Intubation; dose end: 6 day; group: systemic; systemic / in life observation / clinical signs / arrhythmia + systemic / in life observation / clinical signs / emesis + systemic / in life…"}, "[11]": {"conditions": "systemic / in life observation / body weight / body weight gain + systemic / organ weight / liver / absolute + systemic / pathology …"}, "[12]": {"conditions": "systemic / organ weight / kidney / absolute + systemic / clinical chemistry / alkaline phosphatase (alp/alk) / alkaline phosphatase (alp/alk…"}, "[13]": {"conditions": "group: developmental, developmental / developmental malformation / bone / full supernumerary"}, "[14]": {"conditions": "group: maternal, systemic / in life observation / body weight / body weight + systemic / in life observation / food consumption / food consumption"}, "[15]": {"conditions": "systemic / in life observation / body weight / body weight gain + systemic / in life observation / food consumption / food consumption"}, "[16]": {"conditions": "systemic / in life observation / body weight / body weight gain + systemic / in life observation / food consumption / food consumption + …"}},
  "data": [
    {"smiles": "CN1N=C2CCN(C(=O)[C@@H](COCc3ccccc3)NC(=O)C(C)(C)N)C[C@@]2(Cc2ccccc2)C1=O", "note": "[Capromorelin]", "values": [
      {"measurement": "LEL", "setting": "[1]; [11]", "result": 7, "unit": "mg/kg/day"},
      {"measurement": "NEL", "setting": "[1]; [11]", "result": "< 7", "unit": "mg/kg/day"},
      {"measurement": "LOAEL", "setting": "[1]; [12]", "result": "> 40", "unit": "mg/kg/day"},
      {"measurement": "NOAEL", "setting": "[1]; [12]", "result": "≥ 40", "unit": "mg/kg/day"},
      {"measurement": "LOAEL", "setting": "[2]; [13]", "result": "> 75", "unit": "mg/kg/day"},
      {"measurement": "NEL", "setting": "[2]; [13]", "result": "< 1", "unit": "mg/kg/day"},
      {"measurement": "NOAEL", "setting": "[2]; [13]", "result": "≥ 75", "unit": "mg/kg/day"},
      {"measurement": "LOAEL", "setting": "[2]; [14]", "result": "> 75", "unit": "mg/kg/day"},
      {"measurement": "NOAEL", "setting": "[2]; [14]", "result": "≥ 75", "unit": "mg/kg/day"},
      {"measurement": "LEL", "setting": "[3]", "result": 30, "unit": "mg/kg/day"},
      {"measurement": "LOAEL", "setting": "[3]", "result": "> 300", "unit": "mg/kg/day"},
      {"measurement": "NEL", "setting": "[3]", "result": "< 30", "unit": "mg/kg/day"},
      {"measurement": "NOAEL", "setting": "[3]", "result": "≥ 300", "unit": "mg/kg/day"},
      {"measurement": "LEL", "setting": "[4]; [15]", "result": 1, "unit": "mg/kg/day"},
      {"measurement": "NEL", "setting": "[4]; [15]", "result": "< 1", "unit": "mg/kg/day"},
      {"measurement": "LOAEL", "setting": "[4]; [16]", "result": "> 75", "unit": "mg/kg/day"},
      {"measurement": "NOAEL", "setting": "[4]; [16]", "result": "≥ 75", "unit": "mg/kg/day"},
      {"measurement": "LEL", "setting": "[5]", "result": 3, "unit": "mg/kg/day"},
      {"measurement": "LOAEL", "setting": "[5]", "result": "> 300", "unit": "mg/kg/day"},
      {"measurement": "NEL", "setting": "[5]", "result": "< 3", "unit": "mg/kg/day"},
      {"measurement": "NOAEL", "setting": "[5]", "result": "≥ 300", "unit": "mg/kg/day"},
      {"measurement": "LEL", "setting": "[6]", "result": 40, "unit": "mg/kg/day"},
      {"measurement": "LOAEL", "setting": "[6]", "result": "> 40", "unit": "mg/kg/day"},
      {"measurement": "NEL", "setting": "[6]", "result": 7, "unit": "mg/kg/day"},
      {"measurement": "NOAEL", "setting": "[6]", "result": "≥ 40", "unit": "mg/kg/day"},
      {"measurement": "LEL", "setting": "[7]", "result": 1200, "unit": "mg/kg/day"},
      {"measurement": "LOAEL", "setting": "[7]", "result": "> 1200", "unit": "mg/kg/day"},
      {"measurement": "NOAEL", "setting": "[7]", "result": "≥ 1200", "unit": "mg/kg/day"},
      {"measurement": "LOAEL", "setting": "[8]", "result": "> 150", "unit": "mg/kg/day"},
      {"measurement": "NEL", "setting": "[8]", "result": 50, "unit": "mg/kg/day"},
      {"measurement": "NOAEL", "setting": "[8]", "result": "≥ 150", "unit": "mg/kg/day"},
      {"measurement": "LEL", "setting": "[9]", "result": 1, "unit": "mg/kg/day"},
      {"measurement": "LOAEL", "setting": "[9]", "result": "> 75", "unit": "mg/kg/day"},
      {"measurement": "NEL", "setting": "[9]", "result": "< 1", "unit": "mg/kg/day"},
      {"measurement": "NOAEL", "setting": "[9]", "result": "≥ 75", "unit": "mg/kg/day"},
      {"measurement": "LEL", "setting": "[10]", "result": 1, "unit": "mg/kg/day"},
      {"measurement": "LOAEL", "setting": "[10]", "result": "> 3", "unit": "mg/kg/day"},
      {"measurement": "NEL", "setting": "[10]", "result": "< 1", "unit": "mg/kg/day"},
      {"measurement": "NOAEL", "setting": "[10]", "result": "≥ 3", "unit": "mg/kg/day"}
    ]}
  ]
}
